This is an account of results in patent publication US20240180160A1, “ANTIVIRAL POLYMER MATERIAL” (VALE BROTHERS LIMITED, priority 2021, published 2024).

Each structure is given as a SMILES string. Like-named read-outs stand apart in the source and are kept apart here.

For one series, the system named is CRFK cells. The series is described as follows: Cytotoxicity control on the titration cells. The note with it: 0.7% Formaldehyde, neutralised. Here is the method: (§1) In addition, the formaldehyde cytotoxicity of neutralised formaldehyde is determined to measure assay sensitivity.
(§2) TCID50 was determined by the method of Karber (1Kärber, G.: Beitrag zur Kollektiven Behandlung Pharmakologischer Reihenversuche. Arch. Exp. Path. Pharmak. 162 (1931): 480-487.). Test virus suspension has at least a concentration which allows the determination of a 4 log10 reduction of the virus titre. The number of infectious virus particles is quantified by using the Median Tissue Culture Infectious Dose (TCID50) assay. The assay works by adding a serial dilution of the virus sample to cells in a 96 well plate format. The type of cell is specifically selected to show a cytopathic effect (CPE), i.e. morphological changes upon infection with the virus or cell death. After an incubation period, the cells are inspected for CPE or cell death and each well is classified as infected or not infected. Colorimetric or fluorometric readouts are also possible, which can increase assay sensitivity. The dilution, at which 50% of the wells show a CPE, is used to calculate the TCID50 of the virus sample. This calculation can generally be done by a variety of mathematical approaches, e.g., the Spearman-Karber method or the Reed-Muench method. Virus quantity is expressed as TCID50/ml.

The test system of series [1] is Feline coronavirus ATCC VR-989. The settings on record: 0.7% Formaldehyde. As for the experimental part:
as §1, §2

For the molecule `C=O` [Formaldehyde, formaldehyde], in the series with CRFK cells, the “Cytotoxicity TCID50/ml” value is reported as 3.16E+02 TCID50/ml and the “Cytotoxicity log (TCID50/ml)” value is 2.50 log. Also, in series [1] (exposure time 30 mins), the “TCID50/ml (recovered virus)” value was 3.16E+02 TCID50/ml, the “log (TCID50/ml)” value was 2.50 log and the log difference worked out at 3.17 log. For the same molecule, in series [1] (exposure time 60 mins), the “TCID50/ml (recovered virus)” value is 3.16E+02 TCID50/ml, the “log (TCID50/ml)” value turned out to be 2.50 log and the log difference is 3.17 log.
